Reference: patent publication US20120301443A1, “METHODS FOR DEVELOPING ENDOTHELIAL CELLS FROM PLURIPOTENT CELLS AND ENDOTHELIAL CELLS DERIVED” (CORNELL UNIVERSITY, priority 2009, published 2012)

Legend:
Assay type in all cases: cell-based, human
hVPr-GFP hESCs = assay: Endothelial (EC) differentiation of hVPr-GFP hESC embryoid bodies (phase 1)
Procedure: Human VPr-GFP hESCs were grown to confluence on Matrigel™ (BD Bioscience) and then incubated in 5 units/ml dispase (Gibco) until colonies were completely detached from the substrate. Human VPr-GFP EBs were washed and cultured in hESC medium on ultra low attachment plates (Corning) and cultured in the conditions described, with replacement of cytokine supplemented medium every 48 hours. Embryoid bodies were fixed in 4% paraformaldehyde and frozen for cryosectioning and staining.
Embryoid bodies were generated and cultured in base hESC medium, supplemented with the cytokines as shown. Briefly, embryoid bodies were generated in hESC base medium without FGF-2. On the morning following generation of EBs (day 0), medium was supplemented with 20 ng/ml BMP4 (R&D) (removed at day 7); on day 1, medium was supplemented with 10 ng/ml ActivinA (R&D) (removed at day 4); on day 2, medium was supplemented with 8 ng/ml FGF-2 (Peprotech) (remained for the duration of culture); on day 4, EBs were transferred to adherent conditions on Matrigel™-coated plates and medium was supplemented with 25 ng/ml VEGF-A (Peprotech) (remained for the duration of culture); […] duration. Cultures were dissociated using 0.5% Trypsin/EDTA (Gibco) or Accutase (eBioscience). Absolute yield as well as ratio of input hESCs to differentiated ECs was calculated from the number of live cells recovered from differentiation cultures at days 0, 14 and 20. Purified ECs could be frozen and thawed in 10% DMSO with greater than 90% recovery.
(§1) ECs were isolated from differentiation cultures using Magnetic Activated Cell Sorting (MACS; Miltenyi Biotech) with an antibody against CD31 conjugated to magnetic microbeads. Alternatively, cells were isolated by virtue of the expression of GFP/YFP or a fluorophore conjugated antibody to human CD31 or VEGFR2 (BD) using a FACS AriaII (BD).
Total RNA was prepared from cultured cells using the RNeasy™ extraction kit (Qiagen) and reverse transcribed using Superscript II reverse transcriptase (Invitrogen) according to the manufacturer's instructions. Relative quantitative PCR was performed on a 7500 Fast Real Time PCR System (Applied Biosystems) using either TaqMan PCR mix along with Id1 and β-actin primer pairs, or SYBR Green PCR mix (Applied Biosystems). […]
This EC reporter hESC line was also used to monitor the development of a chemically defined, serum-free methodology that could effectively augment vascular differentiation, consisting of two phases. […] Although these growth conditions promoted formation of hVPr-GFP^+ structures, the yield of dissociated hESC-derived ECs obtained by fluorescence-activated cell sorting (FACS) was low, and the few isolated ECs could not be expanded without the majority of derivatives assuming a non-EC phenotype. […]

hESC-derived ECs [1] = assay: Expansion of isolated hESC-derived ECs with or without SB431542 (phase 2)
Procedure: (§2) Embryoid bodies were generated and cultured in base hESC medium, supplemented with the cytokines as shown. Briefly, embryoid bodies were generated in hESC base medium without FGF-2. On the morning following generation of EBs (day 0), medium was supplemented with 20 ng/ml BMP4 (R&D) (removed at day 7); on day 1, medium was supplemented with 10 ng/ml ActivinA (R&D) (removed at day 4); on day 2, medium was supplemented with 8 ng/ml FGF-2 (Peprotech) (remained for the duration of culture); on day 4, EBs were transferred to adherent conditions on Matrigel™-coated plates and medium was supplemented with 25 ng/ml VEGF-A (Peprotech) (remained for the duration of culture); on day 7, SB431542 (Tocris) was added at 10 μM concentration and remained for indicated duration. Cultures were dissociated using 0.5% Trypsin/EDTA (Gibco) or Accutase (eBioscience). Absolute yield as well as ratio of input hESCs to differentiated ECs was calculated from the number of live cells recovered from differentiation cultures at days 0, 14 and 20. Purified ECs could be frozen and thawed in 10% DMSO with greater than 90% recovery.
as §1
Cryosections were immunocytochemically stained as previous described (James et al., Dev. Biol. 295: 90-102 (2006)). Briefly, samples were permeabilized in PBST and blocked in 5% donkey serum. Samples were incubated for 2 hours in primary antibodies blocking solution, washed 3 times in PBS and incubated in CY3-conjugated secondary antibodies (Jackson Laboratories) for 1 hour. Following washing some sections were counterstained for nucleic acids by TO-PRO3 (Invitrogen) before mounting and imaging by confocal microscopy. Primary antibodies included CD31 (DAKO), CD34 (DAKO), Phospho-HistoneH3, Smooth Muscle Actin (SMA) (DAKO) and VE-cadherin (R&D). […]

hESC-derived ECs [2] = assay: Absolute yield and ratio of input hESCs to differentiated ECs over phases 1 and 2
Procedure: as §2

[3] = test system: Id1-YFP hESC-derived CD31+ cells; assay: Id1-YFP hESC-derived CD31+ cells expanded with and without the TGFβ-inhibitor, flow cytometry
Procedure: A bacterial artificial chromosome (BAC) was modified in order to place yellow fluorescent protein (YFP) under control of the endogenous human Id1 promoter locus. This reporter construct was electroporated into the H9 hESC line, selected for BAC integration using antibiotic resistance and subcloned. Clones were assessed and selected based on expression of YFP in Id1 hESC derivatives following spontaneous differentiation. […] To track Id1 expression in live hESC differentiation cultures, a stable BAC transgenic hESC-line expressing yellow fluorescent protein driven by the Id1-promoter (Id1-YFP) (Example 3 herein) was used (FIG. 3A-C). Differentiated ECs were isolated at day 14 from Id1-YFP cultures (FIG. 1d), sub-fractionating the CD31+ population into Id1-YFP high- and low-expressing cells, and these populations were serially expanded for seven days with and without the TGFβ-inhibitor (FIG. 3B).

[4] = ECs isolated at day 14, 5 days with vs without SB431542

NC(=O)c1ccc(-c2nc(-c3ccc4c(c3)OCO4)c(-c3ccccn3)[nH]2)cc1 [SB431542, 4-[4-(1,3-benzodioxol-5-yl)-5-(2-pyridinyl)-1H-imidazol-2-yl]benzamide]
Oct3/4 and brachyury transcripts (hVPr-GFP hESCs; QPCR, normalized to ACTB, time course of differentiation): accelerated the reduction | hVPr-GFP+ ECs when inhibitor is included from the onset of differentiation (hVPr-GFP hESCs; SB431542 from day 0): absence of hVPr-GFP+ ECs | hVPr-GFP+CD31+ ECs (hVPr-GFP hESCs; beginning at 9 days): significant increase | expression of SMA (hVPr-GFP hESCs; time course of differentiation): reducing expression of SMA | cell yield of isolated ECs (hESC-derived ECs [1]; ECs isolated at day 14, 5-day culture period with vs without SB431542): yielded more cells | cell proliferation, percentage of Phospho-HistoneH3+ (PHH3) mitotic ECs (hESC-derived ECs [1]; [4]): increased cell proliferation | percentage of total population retaining α-SMA− CD31+ VEcadherin+ phenotype (hESC-derived ECs [1]; [4]): higher percentage | expansion in total number of vascular-committed hESC-derived ECs (hESC-derived ECs [2]; TGFβ inhibition in phase 1 and 2, 20 days, vs control culture conditions): 36 fold | population maintaining EC identity (hESC-derived ECs [2]; after phase 1 and phase 2 TGFβ-inhibition): 95% | ratio of ECs generated from every one hESC input (hESC-derived ECs [2]; over the course of 20 days): 7.4 ECs per input hESC | mean fluorescence intensity of CD31 ([3]; relative to unstimulated cells): decreased | percentage of the CD31+ population ([3]; relative to unstimulated cells): increased | Id1 expression (Id1-YFP) ([3]; seven days expansion with and without TGFβ-inhibitor): up-regulation of Id1 expression
